The text below walks through data of paper PMC3787017, “Relative Contributions of Norepinephrine and Serotonin Transporters to Antinociceptive Synergy between Monoamine Reuptake Inhibitors and Morphine in the Rat Formalin Model” (PLoS ONE, 2013).

One data set has as its system rat RotaRod test. The following applies: morphine 3 mg/kg SC alone, 60 min post-dose; statistically significant.
The test system of data set [1] is rat formalin model.
The test system of data set [2] is rat formalin model. The experiment in a line: animal or person. The following applies: read-out: ED50, antinociception, drug alone.
Data set [3] has as its target T1, SERT (Rattus norvegicus, UniProt P31652). The experiment in a line: in vivo. The conditions noted are these: ip, read-out: SERT occupancy ex vivo.
Experimental: (§1) Ex vivo occupancy studies were performed similarly to those described previously [31]. At a single time point at the conclusion of phase 2A (75 min post-dose), a 5 mm^2 piece of frontal cortex was dissected, frozen rapidly, and stored at −80°C until use. Cortical crude homogenates were prepared and the initial rates (vi(vehicle) or vi, respectively) of [^3H]-citalopram (SERT) or [^3H]-nisoxetine (NET) binding determined over a 3-min time course. The % NET or SERT transporter occupancy for compound-dosed animals was calculated using the following equation: 100*(1−vi)/average vi(vehicle).
A further data set has as its target NET (Rattus norvegicus, UniProt Q63380). The experiment in a line: in vivo. The conditions noted are these: ip, read-out: NET occupancy ex vivo.
Data set [4] in a line: Plasma and brain unbound concentrations by LC/MS/MS. The conditions noted are these: rat, 75 min post-dosing.
Experimental: Plasma and brain concentrations of reuptake inhibitors were determined by LC/MS/MS. Samples (10–20 µL) were injected in a Hypurity C18 column (50×2.1 mm; 3 µM) with a flow rate of 0.5 mL/min. […] Various gradient elutions were used and the mass spectrometers (Sciex API5000 and API4000; Applied Biosystems, Foster City, CA) were operated in positive ion multiple reaction monitoring mode.
For the pharmacokinetic and bioanalytical analyses, free plasma and free brain concentrations were calculated using the in vitro unbound fractions in rat plasma and brain homogenates, respectively.
Data set [5] can be described thus: Binding in rat brain homogenates, equilibrium dialysis. Type of data set: in vitro ADME. The following applies: brain homogenate, equilibrium dialysis 5 hours 37°C, Theravance, Inc., unpublished data.
Experimental: (§2) The in vitro unbound fraction of reuptake inhibitors in rat brain homogenates (5 µM) and in rat plasma protein (1 µM) was evaluated using equilibrium dialysis using the HT-Dialysis device (Gayles-Ferry, CT). Brain homogenate or plasma was spiked with test compounds and dialyzed against blank PBS for 5 hours at 37°C. The matrices from both sides of the dialysis membranes were equalized and extracted with acetonitrile. Unbound fractions for each compound were calculated as the ratio of peak areas from the PBS side to peak areas from the tissue or plasma side. Peak areas were corrected for dilution of the tissue made prior to spiking compound. Quantification was via LC/MS/MS.
Data set [6] can be described thus: Protein binding in rat plasma, equilibrium dialysis. The data set is classed as in vitro ADME. The following applies: equilibrium dialysis 5 hours 37°C, Theravance, Inc., unpublished data.
Experimental: as §2
Data set [7] concerns SERT. The conditions noted are these: therapeutic dose of 60 mg; cited from earlier work.
Data set [8] has as its target T1, SERT. The following applies: summary over 3 and 10 mg/kg IP (discussion).
Experimental: as §1
The mark [9] stands for this setting: 10 mg/kg IP, drug alone, mean ± SEM.

Read-outs that look alike come from different tables or passages of the source.

T1 sequence (P31652 whole entry): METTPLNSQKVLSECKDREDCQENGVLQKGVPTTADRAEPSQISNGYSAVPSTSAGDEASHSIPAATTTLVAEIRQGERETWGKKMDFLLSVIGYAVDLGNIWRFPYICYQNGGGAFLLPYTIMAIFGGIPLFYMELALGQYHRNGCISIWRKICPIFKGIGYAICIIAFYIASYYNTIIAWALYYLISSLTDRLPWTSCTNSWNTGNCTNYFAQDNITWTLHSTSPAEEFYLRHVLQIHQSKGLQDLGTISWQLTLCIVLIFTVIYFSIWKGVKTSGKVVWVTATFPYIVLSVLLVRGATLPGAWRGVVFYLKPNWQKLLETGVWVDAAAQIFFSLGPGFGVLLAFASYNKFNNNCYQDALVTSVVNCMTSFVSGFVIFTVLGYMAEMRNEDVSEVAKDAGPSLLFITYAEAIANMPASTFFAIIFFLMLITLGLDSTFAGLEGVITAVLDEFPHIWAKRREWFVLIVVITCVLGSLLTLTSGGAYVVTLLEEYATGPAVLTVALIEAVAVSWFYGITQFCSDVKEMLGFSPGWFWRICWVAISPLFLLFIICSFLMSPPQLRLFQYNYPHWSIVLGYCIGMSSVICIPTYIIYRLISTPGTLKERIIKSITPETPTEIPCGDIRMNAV
Chain of NET (Q63380 1-617): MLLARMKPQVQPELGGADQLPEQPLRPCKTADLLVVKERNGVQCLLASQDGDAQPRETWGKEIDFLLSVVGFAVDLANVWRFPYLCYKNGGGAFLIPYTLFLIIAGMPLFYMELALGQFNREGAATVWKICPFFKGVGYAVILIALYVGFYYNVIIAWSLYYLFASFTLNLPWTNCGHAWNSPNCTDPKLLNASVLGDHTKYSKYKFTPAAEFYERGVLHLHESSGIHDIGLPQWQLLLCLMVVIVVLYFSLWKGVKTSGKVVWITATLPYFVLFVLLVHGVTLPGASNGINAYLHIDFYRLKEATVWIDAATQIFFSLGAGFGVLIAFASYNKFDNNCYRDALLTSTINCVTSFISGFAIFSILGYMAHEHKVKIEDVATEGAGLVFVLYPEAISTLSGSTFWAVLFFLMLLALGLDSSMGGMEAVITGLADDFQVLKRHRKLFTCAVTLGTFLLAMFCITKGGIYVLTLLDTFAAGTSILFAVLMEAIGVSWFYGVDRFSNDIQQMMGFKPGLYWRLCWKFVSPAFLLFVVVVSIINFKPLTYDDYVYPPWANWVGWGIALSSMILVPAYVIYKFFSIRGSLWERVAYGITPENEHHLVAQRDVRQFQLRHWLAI
Experimental for NET: as §1

For `CN1CC[C@]23c4c5ccc(O)c4O[C@H]2[C@@H](O)C=C[C@H]3[C@H]1C5` [morphine], in the data set with rat RotaRod test, the “reduction in walking time” value was 65±12%. Also, the inhibition of flinching with rat formalin model [1] (1 mg/kg SC, alone, mean ± SEM) was found to be 18±5%. In addition, the “inhibition of flinching (decrease in nociceptive behavior)” value in the data set with rat formalin model [1] (3 mg/kg SC, alone, mean ± SEM) is 77%±6. In addition, the ED50 with rat formalin model [2] is 2.3 mg/kg.

With `CCOc1ccccc1O[C@@H](c1ccccc1)[C@@H]1CNCCO1` [esreboxetine], the receptor occupancy at 10 mg/kg at SERT [3] turned out to be 3 ± 5%; on NET, 82 ± 5%. In the data set with rat formalin model [1] (rat, in vivo), this molecule registered an inhibition of flinching of 17±9%. The concentration at 75 min in data set [4] (brain, intraperitoneal, 10 mg/kg, [Brain]unbound, esreboxetine 10 mg/kg, − fluoxetine − morphine) amounted to 20.4 ± 14.4 ng/g; in data set [4] (brain, intraperitoneal, [Brain]unbound, esreboxetine 10 mg/kg + fluoxetine 1 + morphine 1 mg/kg), 25 ± 5.8 ng/g; in data set [4] (brain, intraperitoneal, [Brain]unbound, esreboxetine 10 mg/kg + morphine 1 mg/kg), 12.7 ± 9.9 ng/g; in data set [4] (plasma, intraperitoneal, 10 mg/kg, [Plasma]unbound, esreboxetine 10 mg/kg, − fluoxetine − morphine) it was 33.4 ± 12.2 ng/mL; in data set [4] (plasma, intraperitoneal, [Plasma]unbound, esreboxetine 10 mg/kg + fluoxetine 1 + morphine 1 mg/kg), 31.2 ± 8.6 ng/mL; in data set [4] (plasma, intraperitoneal, [Plasma]unbound, esreboxetine 10 mg/kg + morphine 1 mg/kg), 21 ± 17.7 ng/mL.

As for `Cc1nccn1CC1CCc2c(c3ccccc3n2C)C1=O` (stereo not shown) [ondansetron], in the data set on rat formalin model [1] (rat, in vivo), the “antinociceptive activity, alone” value is recorded as “did not exhibit antinociceptive activity”; the “effect on antinociceptive response to duloxetine and morphine” value is “potentiated the antinociceptive response”; the “effect on antinociceptive response to fluoxetine and morphine” value was “failed to potentiate the antinociceptive response”.

In the data set on rat formalin model [1] (setting [9]), `CNCCC(Oc1ccc(C(F)(F)F)cc1)c1ccccc1` (stereo not shown) [fluoxetine] displayed an inhibition of flinching of 9±4%. For the same molecule, the fraction unbound at 5 h, 5 µM in data set [5] worked out at 0.0045. The fraction unbound at 5 h, 1 µM in [6] stood at 0.067.

As for `CNCC[C@H](Oc1cccc2ccccc12)c1cccs1` [duloxetine], in the data set on SERT [7], the “occupancy of SERT by positron emission tomography” value was “near-maximal occupancy”. The molecule also registered an inhibition of flinching in the data set on rat formalin model [1] (5 mg/kg IP, drug alone, mean ± SEM) of 19±12%. Also, the “interaction with morphine at higher doses” value in the data set with rat formalin model [1] (higher doses of duloxetine, antinociceptive in the absence of morphine, data not shown) is recorded as “exhibited additivity with morphine”. Moreover, in data set [5], the fraction unbound at 5 h, 5 µM was 0.007. Moreover, the concentration at 75 min in [4] (brain, intraperitoneal, 5 mg/kg, [Brain]unbound, duloxetine 5 mg/kg, − ondansetron − morphine) came out at 13 ± 1.5 ng/g; in data set [4] (brain, intraperitoneal, [Brain]unbound, duloxetine 5 mg/kg + ondansetron 3 + morphine 1 mg/kg) it was 16.5 ± 4.1 ng/g; in data set [4] (plasma, intraperitoneal, 5 mg/kg, [Plasma]unbound, duloxetine 5 mg/kg, − ondansetron − morphine) it was 4.98 ± 1.4 ng/mL; in [4] (plasma, intraperitoneal, [Plasma]unbound, duloxetine 5 mg/kg + ondansetron 3 + morphine 1 mg/kg), 4.55 ± 0.7 ng/mL. The molecule also gave a fraction unbound at 5 h, 1 µM in data set [6] of 0.031. In the data set on rat formalin model [2], the ED50 worked out at 10.9 mg/kg.

For the molecule `CNCC[C@@H](Oc1ccccc1C)c1ccccc1` [atomoxetine], the receptor occupancy at 3 mg/kg at SERT [3] stood at 35 ± 9%. Besides, at SERT [3], the receptor occupancy at 10 mg/kg was 64 ± 5%. For the same molecule, the inhibition of flinching in the data set on rat formalin model [1] (3 mg/kg IP, drug alone, mean ± SEM) is reported as 4±11%; in the data set with rat formalin model [1] (setting [9]), 19±6%. In data set [5], this molecule showed a fraction unbound at 5 h, 5 µM of 0.021. Also, the concentration at 75 min was found to be 58.2 ± 10.9 ng/g in data set [4] (in vivo, 10 mg/kg, [Brain]unbound, atomoxetine 10 mg/kg, − morphine, mean ± SD); 50.9 ± 5.8 ng/mL in [4] (in vivo, 10 mg/kg, [Plasma]unbound, atomoxetine 10 mg/kg, − morphine, mean ± SD); 52.6 ± 14.4 ng/g in [4] (in vivo, [Brain]unbound, atomoxetine 10 mg/kg + morphine 3 mg/kg); 57.9 ± 12.5 ng/mL in data set [4] (in vivo, [Plasma]unbound, atomoxetine 10 mg/kg + morphine 3 mg/kg). In [6], the fraction unbound at 5 h, 1 µM was 0.18. In addition, the “SERT occupancy at doses that exhibited synergy with morphine” value at SERT [8] is 35 to 64%. For the same molecule, the ED50 in the data set with rat formalin model [2] was determined as 27.8 mg/kg.

`C=CCN1CC[C@]23c4c5ccc(O)c4O[C@H]2C(=O)CC[C@@]3(O)[C@H]1C5` [naloxone]: the “effect on atomoxetine-induced antinociception” value in the data set with rat formalin model [1] (naloxone 5 mg/kg IP, atomoxetine 10 and 30 mg/kg IP) is reported as “failed to attenuate”. Moreover, the “effect on morphine-induced antinociception” value with rat formalin model [1] (naloxone 5 mg/kg IP, morphine 3 mg/kg, p<0.001) is “effectively blocked”.
